# According to patent US20150210740A1, “PSEUDOURIDIMYCIN (PUM) AND ITS DERIVATIVES” (NEW-ANTI-INFECTIVES CONSORTIUM S.C.A.R.L., priority 2012, published 2015):
# Like-named read-outs stand apart in the source and are kept apart here.
# Experiments:
# [1] = biological target: T1, E. coli RNAP (Escherichia coli, UniProt P0A8T7+P0A8V2); assay: RNAP inhibition, E. coli RNAP; assay type: biochemical
# T1 construct: an RNAP purified from either Escherichia coli (Sigma Aldrich) or Bacillus subtilis; purchased Sigma Aldrich; host or cells: Escherichia coli
# Protocol: (§1) The effect of PUM on bacterial RNAP is measured using an RNAP purified from either Escherichia coli (Sigma Aldrich) or Bacillus subtilis as described by Qi and Hulett (Qi Y, Hulett F M., Mol. Microbiol. 1998, 28(6):1187-1197). The bacterial RNAPs are used at 1.1 mg/ml, while the RNAP from bacteriophage T7 (Promega Corporation) is used at 20 U/ml. The nuclear extracts from HeLa cells (Human cervix carcinoma fibroblast; Promega Corporation) or NSO cells (non IgG secreting mouse myeloma lymphoblast; prepared as described by Dignam J D, Lebovitz R M, Roeder R G., Nucleic Acids Res. 1983, 11(5):1475-89) are used at 18 mg/ml. The reaction mixtures (50 μl) contain 40 mM Tris-HCl (pH 7.9), 6 mM MgCl2, 2 mM spermidine, 10 mM NaCl, 10 mM DTT, 10 μg/ml bovine serum albumin, 100 μM ATP, CTP and GTP, 2 μM UTP, 0.5 μCi [α-^32P]UTP, PUM at the desired concentration, RNAP and template DNA. The templates used for the transcription are the plasmid pGEM3Z (20 nM; Promega Corporation) for the bacterial and phagic RNAPs, and DNA derived from calf thymus (20 μg/ml; Sigma Aldrich) for the eukaryotic polymerases. After 30 min. (bacterial and phagic RNAPs) or 60 min. at 37° C., the amount of radioactivity obtained after precipitation with trichloroacetic acid is measured as previously described (Mariani R, Granata G, Maffioli S I, Serina S, Brunati C, Sosio M, Marazzi A, Vannini A, Patel D, White R, Ciabatti R. Bioorg Med Chem Lett. 2005, 15(16):3748-3752).
# [2] = biological target: T2, B. subtilis RNAP (Bacillus subtilis, UniProt P37870+P37871); assay: RNAP inhibition, B. subtilis RNAP; assay type: biochemical
# T2 construct: an RNAP purified from either Escherichia coli (Sigma Aldrich) or Bacillus subtilis; made in house; host or cells: Bacillus subtilis
# Protocol: as §1
# [3] = biological target: B. subtilis β(Q469R) (Bacillus subtilis, UniProt P37870+P37871, Q469R); assay: RNAP inhibition, rifampicin-resistant B. subtilis RNAP; assay type: biochemical
# [4] = test system: HeLa nuclear extract; assay: RNAP inhibition, HeLa nuclear extract; assay type: biochemical, Human
# [5] = test system: NSO nuclear extract; assay: RNAP inhibition, NSO nuclear extract; assay type: biochemical, mouse
# [6] = biological target: T3, T7 RNAP (Escherichia phage T7, UniProt P00573); assay: RNAP inhibition, T7 RNAP; assay type: biochemical, bacteriophage T7
# T3 construct: purchased Promega Corporation
# Protocol: as §1, with “The templates used for the transcription are the plasmid pGEM3Z (20 nM; Promega Corporation) for the bacterial and phagic RNAPs, and DNA derived from calf thymus (20 μg/ml; Sigma Aldrich) for the eukaryotic polymerases. After 30 min.” left out
# [7] = test system: T4, bacterial RNAP; assay: Inhibition of bacterial RNAP; assay type: biochemical; conditions: RNAP of both Gram-positive and Gram-negative bacteria; read-out: IC50 (concentration producing 50% inhibition of enzyme activity), bacterial RNAP
# T4 construct: other: RNAP of both Gram-positive and
# [8] = test system: Streptococcus pyogenes; assay: Growth inhibition (MIC), Streptococcus pyogenes; assay type: cell-based; conditions: Streptococcus pyogenes L49
# Protocol: (§2) The antibacterial activity is determined by evaluating the effect on the growth kinetics as described (Holowachuka S, Bal'ab M, Buddington R., 2003, J. Microbiol. Meth. 55, 441-446). Micro-organisms are grown in either Todd Hewitt medium (Streptococcus pyogenes) or cation-adjusted Mueller Hinton Broth (S. aureus, E. faecium, M catarrhalis, E. coli, P. aeruginosa, S. maltophilia) on 96-well microtiter plates. Each bacterial strain is inoculated with 5×10^4 CFU/ml and incubated at 37° C. on the Synergy 2 reader (BioTek), and the optical density is monitored at 595 nm for 48 h.
# [9] = test system: Streptococcus pneumoniae; assay: Growth inhibition (MIC), Streptococcus pneumoniae; assay type: cell-based
# Protocol: [Worded in the source for another organism; used here, by the source, with some conditions changed.] as §2
# [10] = test system: Neisseria meningitidis L1612; assay: Growth inhibition (MIC), Neisseria meningitidis; assay type: cell-based
# [11] = test system: Haemophilus influenzae L3296; assay: Growth inhibition (MIC), Haemophilus influenzae; assay type: cell-based
# [12] = test system: Moraxella catarrhalis L3294; assay: Growth inhibition (MIC), Moraxella catarrhalis; assay type: cell-based
# Protocol: as §2
# [13] = test system: S. pyogenes C203; assay: S. pyogenes peritonitis model in mice; assay type: in vivo, ICR female mice; conditions: for ED50: Streptococcus pyogenes
# Protocol: ICR female mice (Harlan Italia) weighing 23-25 g are acclimated (23±2° C., humidity, 55±10% humidity) for one week before the experiment. The infection is induced by intraperitoneal injection of 4×10^3 CFU of S. pyogenes […] in 0.5 mL of saline containing 1% peptone. 48-72 h after infection, this inoculum leads to a mortality of at least 95% in untreated controls. Eight mice per group for each dose are treated with 0.25 mL of PUM prepared in 5% dextrose. Two different experiments were performed: in the first experiment, PUM is administered intravenously 10 min. after the infection and 6 hours later; in the second experiment, PUM is administered as a single intravenous or subcutaneous dose 10 min. after infection. The mortality of the animals is recorded daily. The ED50 (50% effective dose) and 95% confidence limits are calculated as described (Finney, D. J. 1952. The Spearman-Kärber method. P. 524-30. In D. J. Finney (ed.) Statistical method in biological assay. Charles Griffin & Company Limited, London) for surviving animals at day 7 at each dose.
# [14] = test system: Gram-positive and Gram-negative susceptible, resistant and multi-resistant pathogenic bacteria; assay: Growth inhibition of pathogenic bacteria; assay type: cell-based; conditions: human serum 30%
# Protocol: as §2
# [15] = biological target: T5, bacterial RNAP (UniProt P0A8T7+P0A8V2); assay: Inhibition of bacterial RNAP; assay type: biochemical; conditions: read-out: IC50, bacterial RNAP; reaction mixture used as is for the bioactivity tests
# T5 construct: other: reaction mixture used as is for the bioactivity tests
# T2 sequence (O35011 whole entry): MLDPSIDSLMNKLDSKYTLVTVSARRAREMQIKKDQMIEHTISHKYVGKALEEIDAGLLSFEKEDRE
# T2 sequence (P37871 whole entry): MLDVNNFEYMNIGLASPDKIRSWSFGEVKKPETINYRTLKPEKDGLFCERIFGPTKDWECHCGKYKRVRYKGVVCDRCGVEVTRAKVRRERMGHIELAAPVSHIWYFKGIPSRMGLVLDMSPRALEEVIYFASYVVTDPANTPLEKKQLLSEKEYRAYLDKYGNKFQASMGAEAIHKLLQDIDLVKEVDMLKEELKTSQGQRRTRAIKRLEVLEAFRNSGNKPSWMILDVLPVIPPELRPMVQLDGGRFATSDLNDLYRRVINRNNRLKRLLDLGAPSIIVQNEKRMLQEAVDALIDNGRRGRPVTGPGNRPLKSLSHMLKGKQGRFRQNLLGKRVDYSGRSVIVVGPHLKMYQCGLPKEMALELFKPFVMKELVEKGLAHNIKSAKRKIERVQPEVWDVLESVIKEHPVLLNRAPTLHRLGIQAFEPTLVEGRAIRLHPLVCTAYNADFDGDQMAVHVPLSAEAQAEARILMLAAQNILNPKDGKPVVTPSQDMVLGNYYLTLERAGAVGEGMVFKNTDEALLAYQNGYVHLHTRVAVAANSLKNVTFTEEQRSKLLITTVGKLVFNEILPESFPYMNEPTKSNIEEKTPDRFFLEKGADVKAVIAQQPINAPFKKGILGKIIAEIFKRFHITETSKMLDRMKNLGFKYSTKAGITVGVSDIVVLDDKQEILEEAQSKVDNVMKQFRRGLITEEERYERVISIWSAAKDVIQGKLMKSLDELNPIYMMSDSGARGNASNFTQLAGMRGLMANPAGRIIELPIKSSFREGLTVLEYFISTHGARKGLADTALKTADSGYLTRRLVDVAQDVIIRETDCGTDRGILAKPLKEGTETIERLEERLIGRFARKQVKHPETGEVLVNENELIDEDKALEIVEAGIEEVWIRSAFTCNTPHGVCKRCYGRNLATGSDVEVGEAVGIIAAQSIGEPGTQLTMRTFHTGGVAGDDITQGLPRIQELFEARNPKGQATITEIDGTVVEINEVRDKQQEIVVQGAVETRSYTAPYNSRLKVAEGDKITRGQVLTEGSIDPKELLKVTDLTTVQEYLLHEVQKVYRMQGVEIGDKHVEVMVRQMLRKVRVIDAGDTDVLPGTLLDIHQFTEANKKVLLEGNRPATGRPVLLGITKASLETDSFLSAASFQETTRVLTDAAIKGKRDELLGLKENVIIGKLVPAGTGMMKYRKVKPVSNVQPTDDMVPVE
# T2 sequence (P20429 whole entry, further chain): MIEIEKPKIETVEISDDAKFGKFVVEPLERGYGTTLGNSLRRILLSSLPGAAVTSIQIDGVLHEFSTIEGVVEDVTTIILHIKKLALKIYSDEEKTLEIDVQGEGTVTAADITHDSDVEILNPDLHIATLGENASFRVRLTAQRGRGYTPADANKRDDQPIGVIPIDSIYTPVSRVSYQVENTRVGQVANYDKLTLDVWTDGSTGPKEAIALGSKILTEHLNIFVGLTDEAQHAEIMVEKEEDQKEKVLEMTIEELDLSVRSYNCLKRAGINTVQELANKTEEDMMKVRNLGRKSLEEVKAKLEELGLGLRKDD
# T2 sequence (P37870 whole entry): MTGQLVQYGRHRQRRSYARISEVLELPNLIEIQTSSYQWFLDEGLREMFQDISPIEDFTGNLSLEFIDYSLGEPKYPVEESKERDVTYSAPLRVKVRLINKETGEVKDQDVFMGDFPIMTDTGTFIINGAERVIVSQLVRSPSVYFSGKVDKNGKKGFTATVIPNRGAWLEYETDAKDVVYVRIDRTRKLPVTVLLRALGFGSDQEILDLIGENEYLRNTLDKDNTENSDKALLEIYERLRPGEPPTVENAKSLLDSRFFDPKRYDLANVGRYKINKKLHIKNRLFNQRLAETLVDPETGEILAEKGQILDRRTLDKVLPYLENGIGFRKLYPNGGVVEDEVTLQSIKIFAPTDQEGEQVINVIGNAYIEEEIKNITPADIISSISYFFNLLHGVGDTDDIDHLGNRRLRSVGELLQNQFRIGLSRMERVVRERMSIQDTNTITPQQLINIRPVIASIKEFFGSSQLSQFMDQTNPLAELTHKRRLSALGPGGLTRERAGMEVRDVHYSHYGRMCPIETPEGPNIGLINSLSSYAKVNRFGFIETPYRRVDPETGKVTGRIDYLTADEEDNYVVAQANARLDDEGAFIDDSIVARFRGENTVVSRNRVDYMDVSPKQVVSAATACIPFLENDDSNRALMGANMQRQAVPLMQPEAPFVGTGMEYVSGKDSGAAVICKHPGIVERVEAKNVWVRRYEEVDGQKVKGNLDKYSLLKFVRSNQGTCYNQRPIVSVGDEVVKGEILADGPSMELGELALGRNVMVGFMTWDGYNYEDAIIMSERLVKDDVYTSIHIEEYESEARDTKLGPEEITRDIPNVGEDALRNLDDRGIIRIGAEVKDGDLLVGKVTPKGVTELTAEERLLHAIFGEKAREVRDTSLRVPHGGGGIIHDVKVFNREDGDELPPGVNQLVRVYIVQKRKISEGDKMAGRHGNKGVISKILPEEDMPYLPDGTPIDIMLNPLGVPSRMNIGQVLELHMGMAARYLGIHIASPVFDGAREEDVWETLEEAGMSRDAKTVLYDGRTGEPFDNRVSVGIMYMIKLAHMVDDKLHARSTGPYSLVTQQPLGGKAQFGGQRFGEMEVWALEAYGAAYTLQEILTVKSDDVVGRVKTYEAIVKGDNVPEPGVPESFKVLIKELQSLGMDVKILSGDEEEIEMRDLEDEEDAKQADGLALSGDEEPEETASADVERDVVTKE
# Chain of B. subtilis β(Q469R) (P20429 whole entry): as the sequence (P20429 whole entry, further chain) above
# Chain of B. subtilis β(Q469R) (P37870 whole entry Q469R): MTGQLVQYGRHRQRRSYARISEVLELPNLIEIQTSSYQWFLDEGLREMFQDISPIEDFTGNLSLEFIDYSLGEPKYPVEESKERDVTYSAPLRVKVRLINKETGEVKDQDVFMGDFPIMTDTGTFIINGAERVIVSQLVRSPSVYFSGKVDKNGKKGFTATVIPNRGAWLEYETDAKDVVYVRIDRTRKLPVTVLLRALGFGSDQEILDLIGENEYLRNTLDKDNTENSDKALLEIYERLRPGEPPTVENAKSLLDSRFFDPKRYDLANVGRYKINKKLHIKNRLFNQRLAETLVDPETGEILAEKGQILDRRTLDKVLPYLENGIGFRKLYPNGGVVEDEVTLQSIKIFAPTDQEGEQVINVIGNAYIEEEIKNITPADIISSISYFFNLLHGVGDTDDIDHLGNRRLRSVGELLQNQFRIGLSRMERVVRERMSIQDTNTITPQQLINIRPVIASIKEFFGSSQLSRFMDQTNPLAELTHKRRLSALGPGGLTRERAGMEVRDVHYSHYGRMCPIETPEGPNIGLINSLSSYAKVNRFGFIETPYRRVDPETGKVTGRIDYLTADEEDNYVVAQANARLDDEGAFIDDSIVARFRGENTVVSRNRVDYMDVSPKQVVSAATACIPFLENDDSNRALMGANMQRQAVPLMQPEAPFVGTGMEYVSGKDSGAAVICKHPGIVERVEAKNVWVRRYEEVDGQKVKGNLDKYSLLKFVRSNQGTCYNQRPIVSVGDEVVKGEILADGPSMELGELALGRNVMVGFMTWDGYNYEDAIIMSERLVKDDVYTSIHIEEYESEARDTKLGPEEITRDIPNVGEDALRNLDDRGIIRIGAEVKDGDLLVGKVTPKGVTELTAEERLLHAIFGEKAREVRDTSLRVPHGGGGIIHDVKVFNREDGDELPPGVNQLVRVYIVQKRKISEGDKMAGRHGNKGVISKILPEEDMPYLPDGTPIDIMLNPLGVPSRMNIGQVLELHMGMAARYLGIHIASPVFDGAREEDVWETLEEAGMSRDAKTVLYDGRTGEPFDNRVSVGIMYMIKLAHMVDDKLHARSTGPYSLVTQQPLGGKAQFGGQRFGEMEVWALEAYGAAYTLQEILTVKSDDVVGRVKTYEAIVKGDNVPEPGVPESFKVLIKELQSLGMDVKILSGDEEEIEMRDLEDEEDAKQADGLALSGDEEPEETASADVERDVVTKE
# Chain of B. subtilis β(Q469R) (P37871 whole entry): as the sequence (P37871 whole entry) above
# Chain of B. subtilis β(Q469R) (O35011 whole entry, further chain): as the sequence (O35011 whole entry) above
# T3 sequence (P00573 whole entry): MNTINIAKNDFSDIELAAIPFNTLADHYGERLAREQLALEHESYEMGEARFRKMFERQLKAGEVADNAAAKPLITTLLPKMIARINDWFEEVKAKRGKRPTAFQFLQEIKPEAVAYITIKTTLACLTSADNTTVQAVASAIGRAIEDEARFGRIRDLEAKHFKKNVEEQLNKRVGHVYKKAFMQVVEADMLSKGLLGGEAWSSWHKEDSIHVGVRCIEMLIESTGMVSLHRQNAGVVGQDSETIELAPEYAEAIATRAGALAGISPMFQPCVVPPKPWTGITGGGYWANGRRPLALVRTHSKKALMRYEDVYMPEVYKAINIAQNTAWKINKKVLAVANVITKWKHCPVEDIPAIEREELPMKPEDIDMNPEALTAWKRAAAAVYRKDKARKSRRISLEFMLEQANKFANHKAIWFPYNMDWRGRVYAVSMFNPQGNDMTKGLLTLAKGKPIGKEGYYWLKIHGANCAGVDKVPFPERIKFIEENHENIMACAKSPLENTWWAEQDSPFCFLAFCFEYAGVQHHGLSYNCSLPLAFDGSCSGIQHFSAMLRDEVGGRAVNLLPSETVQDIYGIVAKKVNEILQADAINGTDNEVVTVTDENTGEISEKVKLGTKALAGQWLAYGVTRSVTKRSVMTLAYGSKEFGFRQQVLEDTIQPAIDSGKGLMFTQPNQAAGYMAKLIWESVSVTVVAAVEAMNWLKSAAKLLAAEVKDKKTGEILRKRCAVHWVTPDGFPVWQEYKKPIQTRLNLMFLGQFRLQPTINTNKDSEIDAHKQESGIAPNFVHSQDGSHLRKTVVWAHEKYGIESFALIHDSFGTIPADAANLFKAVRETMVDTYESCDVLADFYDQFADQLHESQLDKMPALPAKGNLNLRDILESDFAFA
smiles,measurement,setting,value
"N=C(N)NCC(=O)N(O)[C@@H](CCC(N)=O)C(=O)NC[C@H]1O[C@@H](c2c[nH]c(=O)[nH]c2=O)[C@H](O)[C@@H]1O [PUM, Pseudouridimycin]",IC50,[1],300 nM
same,IC50,[2],400 nM
same,IC50,[3],100 nM
same,cross-resistance with rifampicin,"[3]; RNAP inhibition, Table 1",without showing any cross-resistance with rifampicin
same,IC50,[4],> 74000 nM
same,IC50,[5],205000 nM
same,IC50,[6],> 205000 nM
same,IC50,[7],300 to 400 nM
same,MIC,[8]; human serum 30% present,2 µg/mL
same,MIC,"[8]; human serum absent, read-out: MIC",2 µg/mL
same,MIC,"[9]; Streptococcus pneumoniae L44, human serum 30% present",2 µg/mL
same,MIC,"[9]; Streptococcus pneumoniae L44, human serum absent",3 µg/mL
same,MIC,"[9]; Streptococcus pneumoniae L899-Rif^R, human serum absent",3 µg/mL
same,MIC,"[9]; Streptococcus pneumoniae L1407-Azi^R, human serum absent",3 µg/mL
same,MIC,"[9]; Streptococcus pneumoniae L1542-Ami^REry^RCli^RGen^RTet^R, human serum absent",3 µg/mL
same,MIC,"[9]; Streptococcus pneumoniae L2868-8 MDR, human serum absent",3 µg/mL
same,MIC,"[9]; Streptococcus pneumoniae L3909-Pen^REry^RChl^RCtr^R, human serum absent",2 µg/mL
same,MIC,"[9]; Streptococcus pneumoniae ND061311-Pen^RAzi^R, human serum absent",3 µg/mL
same,MIC,[10],10 µg/mL
same,MIC,[11],0.8 µg/mL
same,MIC,[12],0.8 µg/mL
same,ED50,"[13]; C203, iv, iv: 10 min. and 6 h post-infection, survival at day 7",10 mg/kg
same,ED50,"[13]; C203, iv, iv: 10 min. post-infection, survival at day 7",20 mg/kg
same,ED50,"[13]; C203, murine model of Streptococcus peritonitis, regimen not given",10 mg/kg
same,ED50,"[13]; C203, sc, sc: 10 min. post-infection, survival at day 7",20 mg/kg
same,effectiveness after intravenous versus subcutaneous administration,[13]; murine Streptococcus peritonitis,comparable effectiveness
same,effect of human serum on antibacterial activity,[14],not affected by the presence of human serum
"CO[C@H]1/C=C/O[C@@]2(C)Oc3c(C)c(O)c4c(O)c(c(/C=N/N5CCN(C)CC5)c(O)c4c3C2=O)NC(=O)/C(C)=C\C=C\[C@H](C)[C@H](O)[C@@H](C)[C@@H](O)[C@@H](C)[C@H](OC(C)=O)[C@@H]1C [Rif, rifampicin, reference compound]",IC50,[1],60 nM
same,IC50,[2],50 nM
same,IC50,[3],> 121000 nM
same,IC50,[6],> 121000 nM
"CCc1c(Cl)c(O)c(Cl)c(O)c1C(=O)O[C@H]1[C@H](O)[C@H](OC)[C@H](OC/C2=C\C=C\C[C@H](O)/C(C)=C/[C@H](CC)[C@@H](O[C@@H]3OC(C)(C)[C@@H](OC(=O)C(C)C)[C@H](O)[C@@H]3O)/C(C)=C/C(C)=C/C[C@@H]([C@@H](C)O)OC2=O)O[C@@H]1C [Fdx, fidaxomicin, reference compound]",IC50,[1],5500 nM
same,IC50,[2],900 nM
same,IC50,[3],700 nM
same,IC50,[4],> 92000 nM
same,IC50,[5],42000 nM
"N=C(N)NCC(=O)N(O)[C@@H](CCC(=O)NCc1ccccc1)C(=O)NC[C@H]1O[C@@H](c2c[nH]c(=O)[nH]c2=O)[C@H](O)[C@@H]1O [compound III, PUM benzylamide]",IC50,[15],4000 nM
